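Cells were grown in 96-well plates and exposed to each compound for 48 hours at five concentrations; endpoints were interpolated linearly between bracketing concentrations, or set to the highest concentration if not reached. GI50 is the concentration that inhibits growth by half. The concentration for full growth arrest is given as TGI.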
Key:
Experiment in all cases: NCI tumour cell line growth inhibition, 48 h
[1] = test system: 786-0 renal
[2] = test system: A498 renal
[3] = test system: ACHN renal
[4] = test system: CAKI-1 renal
[5] = test system: CCRF-CEM leukemia
[6] = test system: DU-145 prostate
[7] = test system: HCT-15 colon
[8] = test system: HOP-92 NSCLC
[9] = test system: HT29 colon
[10] = test system: IGROV1 ovarian
[11] = test system: M14 melanoma
[12] = test system: MALME-3M melanoma
[13] = test system: NCI-H23 lung
[14] = test system: NCI-H460 lung
[15] = test system: NCI-H522 lung
[16] = test system: NCI/ADR-RES ovarian
[17] = test system: OVCAR-5 ovarian
[18] = test system: PC-3 prostate
[19] = test system: RPMI-8226 leukemia
[20] = test system: RXF 393 renal
[21] = test system: SF-268 CNS
[22] = test system: SF-539 CNS
[23] = test system: SK-MEL-28 melanoma
[24] = test system: SK-OV-3 ovarian
[25] = test system: SNB-75 CNS
[26] = test system: TK-10 renal
[27] = test system: UACC-62 melanoma
[28] = test system: UO-31 renal

In the case of `NC(N)=Nc1ccc(Oc2cccc(Nc3ccc(Br)c(C(F)(F)F)c3)c2)cc1`, the GI50 [1] is reported as 1600 nM, the TGI [1] is reported as 3120 nM and the GI50 [2] is reported as 1490 nM. For the same compound, the TGI [2] was 2910 nM, the GI50 [3] was 2690 nM and the TGI [3] was 7840 nM. The GI50 [4] was 1600 nM, the TGI [4] was 3140 nM and the GI50 [5] was 1970 nM. For the same compound, the TGI [5] was 5500 nM, the GI50 [6] was 1800 nM and the TGI [6] was 3310 nM. For the same compound, the GI50 [7] was 2050 nM, the TGI [7] was 4830 nM and the GI50 [8] was 829 nM. For the same compound, the TGI [8] was 2160 nM, the GI50 [9] was 1560 nM and the TGI [9] was 3120 nM. The GI50 [10] was 1190 nM, the TGI [10] was 2760 nM and the GI50 [11] was 1690 nM. It also gave a TGI [11] of 3290 nM, a GI50 [12] of 1800 nM and a TGI [12] of 4040 nM. For the same compound, the GI50 [13] was 1670 nM, the TGI [13] was 3370 nM and the GI50 [14] was 1870 nM. The TGI [14] was 3510 nM, the GI50 [15] was 1600 nM and the TGI [15] was 3350 nM. It also gave a GI50 [16] of 14600 nM, a TGI [16] of 37500 nM and a GI50 [17] of 1630 nM. For the same compound, the TGI [17] was 3070 nM, the GI50 [18] was 1400 nM and the TGI [18] was 2730 nM. It also gave a GI50 [19] of 1970 nM, a TGI [19] of 4610 nM and a GI50 [20] of 1750 nM. The TGI [20] was 3270 nM, the GI50 [21] was 1680 nM and the TGI [21] was 3450 nM. It also gave a GI50 [22] of 1630 nM, a TGI [22] of 3090 nM and a GI50 [23] of 1770 nM. The TGI [23] was 3220 nM, the GI50 [24] was 2110 nM and the TGI [24] was 5120 nM. For the same compound, the GI50 [25] was 1230 nM, the TGI [25] was 2560 nM and the GI50 [26] was 1880 nM. It also gave a TGI [26] of 4110 nM, a GI50 [27] of 1770 nM and a TGI [27] of 3280 nM. For the same compound, the GI50 [28] was 3080 nM and the TGI [28] was 11500 nM.
